Experimental findings from patent US11485725B2, “Derivatives of piperlongumine and uses thereof” (Auransa Inc., priority 2017, dated 2022) are described below.

The test system of data set [1] is HCT116 (colorectal cancer) cells. Briefly: Resazurin-based cell viability assay using colorectal cancer cells. The settings on record: Homo sapiens, HCT-116, 72 hr incubation. The method in brief:
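HCT116 cells in DMEM/10% FBS grown 24 h, then exposed to serially diluted compounds for 72 h at 37 °C. Viability read as resazurin (1 mM) fluorescence (ex 535/em 590 nm) after 4–6 h; background-subtracted, normalised to DMSO control, IC50 fitted from percent survival.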
A general note: The colour change of resazurin is a common sign of viable cells or microbes.

A short description of data set [2]: In vitro microsome stability analyses. In kind it is in vitro ADME. The settings on record: result in words.
The next data set deals with MOLP-8. Briefly: In vitro cell viability assay (CellTiter-Glo, ATP levels), multiple myeloma cells. The class given is cell-based. The settings on record: Homo sapiens, MOLP-8, 168 h, 7-day incubation, CellTiter-Glo, average values; read-out: MOLP-8 IC50. The method in brief: (§1)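 Cells plated overnight, then exposed to compounds over a concentration range for 7 days at 37 °C, 5% CO2. Viability read as ATP luminescence (CellTiter-Glo), normalised to positive and negative control wells; IC50 from Hill-equation non-linear regression of concentration–response curves.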
In general terms: In ATP-based viability assays light output follows the ATP content of the culture.

The nature of data set [3]: In vivo pharmacokinetic analysis, plasma. The arrangement: species or system Balb/C female mice. The settings on record: mice, result in words. How it is done:
In Vivo Pharmacokinetic Analysis
Age 8 to 9 weeks Balb/C female mice were used for this study. The mice were maintained in a special pathogen-free environment and in disposable cages. Animal room was set to maintain temperature and relative humidity at 23° C.±3° C. and 55%±15%, respectively. Housing room was on a 12:12 light/dark cycle. Water was supplied ad libitum to each cage via water bottles. All mice were fed rodent diet with 18% protein. All animals were weighed before commencement of the study.
Compound 1 was stored at 4° C. protected from light. Dosing solutions were used within 2 hours of preparation. Compound 1 was formulated within 2 hours prior to dosing by adding the pre-calculated volume of PEG 400 (40% of total solution volume). Formulated compound 1 was vortexed and sonicated until a clear solution was formed. […]
The concentration of Compound 1 was determined by a UPLC-TIS-MS-MS method (ultra performance liquid chromatography-turbo ion spray-tandem mass spectrometry). […]
Mass spectrometric analysis was performed using an AB Sciex API5000 with Turbo Ion Spray interface operating in a positive ionization mode. Quantification was performed using multiple reaction monitoring (MRM) method with the transitions of (m/z) 316.104→(m/z) 219.014 for Compound 1 and (m/z) 455.346→(m/z) 165 for verapamil (internal standard). […]

A further data set concerns DU4475. In words: In vitro cell viability assay (CellTiter-Glo, ATP levels), triple negative breast cancer cells. In kind it is cell-based. The settings on record: Homo sapiens, DU-4475, 168 h, 7-day incubation, CellTiter-Glo, average values; read-out: DU4475 IC50. The gist of the method:
as §1

Each structure is given as a SMILES string.

In general, IC50 refers to the midpoint of a concentration-inhibition curve. Take `COc1cc(/C=C/C(=O)N2CCC=CC2=O)cc2c1OCCO2` [Compound 1, (E)-1-(3-(8-methoxy-2,3-dihydrobenzo[b][1,4]dioxin-6-yl)acryloyl)-5,6-dihydropyridin-2(1H)-one]: the IC50 in data set [1] was determined as 1900 nM; with MOLP-8, 740 nM; with DU4475, 830 nM. Moreover, the “potency and/or metabolic stability” value in data set [2] was “demostrated potency and/or metabolic stability”. In addition, in data set [3], the “in vivo plasma half-life (t1/2) as compared to piperlongumine” value is “increased in vivo plasma half-life (t1/2) as compared to piperlongumine”.

Take `O=C1C=CC(F)CN1C(=O)/C=C/c1ncccn1` (centres unmarked) [Compound 37, (E)-5-fluoro-1-(3-(pyrimidin-2-yl)acryloyl)-5,6-dihydropyridin-2(1H)-one]: the IC50 in data set [1] was 870 nM; in the data set with MOLP-8, 110 nM; in the data set with DU4475, 420 nM.

Turning to `O=C1C=CCCN1C(=O)/C=C/C1CCNCC1` [Compound 20, (E)-1-(3-(piperidin-4-yl)acryloyl)-5,6-dihydropyridin-2(1H)-one], the values for the IC50 (in data set [1]; with MOLP-8; in the data set with DU4475) were 2130 nM, 690 nM and 1320 nM, respectively.

In the case of `CC(C)(C)OC(=O)N1CCC(/C=C(\C(=O)N2CCC=CC2=O)c2ccccc2)CC1` [Compound 92, (Z)-tert-butyl 4-(3-oxo-3-(2-oxo-5,6-dihydropyridin-1(2H)-yl)-2-phenylprop-1-enyl)piperidine-1-carboxylate], the IC50 in data set [1] was found to be 9720 nM; in the data set on MOLP-8, 4320 nM; with DU4475, 4750 nM.

For `O=C1C=CC(O)CN1C(=O)/C=C/c1ncccn1` (centres unmarked) [Compound 32, 5-hydroxy-1-[(2E)-3-(pyrimidin-2-yl)prop-2-enoyl]-5,6-dihydropyridin-2(1H)-one], the figures for the concentration for half-maximal inhibition (IC50) (in data set [1]; in the data set on MOLP-8; in the data set with DU4475) were 7200 nM, 380 nM and 1490 nM, respectively.

On to `O=C1C=CCCN1C(=O)/C=C/c1ccc2c(n1)OCCO2` [Compound 21, (E)-1-(3-(2,3-dihydro-[1,4]dioxino[2,3-b]pyridin-6-yl)acryloyl)-5,6-dihydropyridin-2(1H)-one], for which the results for the IC50 (in data set [1]; in the data set on MOLP-8; in the data set on DU4475) were 3160 nM, 680 nM and 530 nM, respectively.

Take `O=C1C=CCCN1C(=O)C=C(c1ccccc1)c1ccccc1` [Compound 29, 1-(3,3-diphenylacryloyl)-5,6-dihydropyridin-2(1H)-one]: the values for the half-maximal inhibitory concentration (IC50) (in data set [1]; in the data set on MOLP-8; in the data set on DU4475) were 6400 nM, 2700 nM and 1720 nM, respectively.

With `O=C1C=CCCCN1C(=O)/C=C/c1cccnc1` [Compound 4, (E)-1-(3-(pyridin-3-yl)acryloyl)-1,5,6,7-tetrahydro-2H-azepin-2-one], the half-maximal inhibitory concentration (IC50) in data set [1] is 1900 nM; in the data set with MOLP-8, 520 nM; with DU4475 it was 590 nM.

Turning to `COc1cnc(/C=C/C(=O)N2CCC=CC2=O)nc1` [Compound 63, (E)-1-(3-(5-methoxypyrimidin-2-yl)acryloyl)-5,6-dihydropyridin-2(1H)-one], the figures for the half-inhibitory concentration (IC50) (in data set [1]; in the data set on MOLP-8; with DU4475) were 2110 nM, 290 nM and 480 nM, respectively.

On to `O=C1C=CCCN1C(=O)/C=C/C1CCN(C2COC2)CC1` [Compound 45, (E)-1-(3-(1-(oxetan-3-yl)piperidin-4-yl)acryloyl)-5,6-dihydropyridin-2(1H)-one], for which the figures for the half-maximal inhibitory concentration (IC50) (in data set [1]; with MOLP-8; in the data set with DU4475) were 3240 nM, 720 nM and 1350 nM, respectively.
